What all share (format): in vivo
For data set [1], the system named is wild-type rice plants. Briefly: Rice phenotypes in soil (rhizotron system). Conditions: 5 μM. The procedure: For testing MZ3 and MZ5 on rice phenotypes in the rhizotron system (48 cm×24 cm×5 cm), three-day-old seedlings were grown in soil with half-strength modified Hoagland nutrient solution containing 0.4 mM K2HPO4.2H2O (+Pi) and 5 μM zaxinone for two weeks. The solution was changed every other day, adding the chemical at each renewal. To increase the compounds stability, 1 μl/ml emulsifier (cyclohexanone+Atlas […] kindly provided by a person […] of CRODA, Gouda; The Netherlands) was added into Hoagland nutrient solution. Root surface area was analyzed with the ImageJ software.

Data set [2] deals with SL biosynthesis genes D27, CCD7, CCD8, CO. Briefly: qRT-PCR transcript analysis of SL biosynthesis genes in rice roots. The conditions noted are these: 5 μM. As for the experimental part:
For transcript analysis, one-week-old seedlings were grown hydroponically in half-strength modified Hoagland nutrient solution with K2HPO4.2H2O (+Pi) and without K2HPO4.2H2O (+Pi) (−Pi) for 7 days. Seedlings were further treated with zaxinone or MZ compounds for 6 h, and tissues were collected.
Roots of rice seedling were ground and homogenized in liquid nitrogen, and total RNA was isolated using a Direct-zol RNA Miniprep Plus Kit following the manufacturer's instructions (ZYMO RESEARCH; USA). cDNA was synthesized from 1 μg of total RNA using iScript cDNA Synthesis Kit (BIO-RAD Laboratories, Inc, 2000 Alfred Nobel Drive, Hercules, Calif.; USA) according to the instructions in the user manual. The gene expression level was detected by real-time quantitative RT-PCR (qRT-PCR) which was performed using SYBR Green Master Mix (Applied Biosystems; www.lifetechnologies.com) in a CFX384 Touch™ Real-Time PCR Detection System (BIO-RAD Laboratories, Inc, 2000 Alfred Nobel Drive, Hercules, Calif.; USA). The gene expression level was calculated by normalization of a housekeeping gene in rice, Ubiquitin (OsUBQ) (Table 1). The relative gene expression level was calculated according to 2-^ΔΔCT method.

Data set [3] in a line: LC-MS analysis of rice plants fed with the mimics. Conditions: data not shown.
Data set [4] relates to Striga hermonthica. Briefly: Striga hermonthica infection of rice in pots. The conditions noted are these: 5 μM, rice cv IAC-165 in pots with Striga infested soil (FIG. 13). The procedure:
Pots experiment was conducted and slightly adapted from the protocol as described previously About 20 mg (ca 8000) Striga seeds were thoroughly mixed in 1.5 L sand and soil mixture (1:1) and added in 3 L perforated plastic pot containing 0.5 L clean soil in the bottom. The pots were kept in greenhouse-controlled conditions at 35° C. under moisture to preconditioned Striga seeds for 10 days. On 11th day, one week old five rice seedlings (cv IAC165) were planted in each pot. After three days of rice planting, each pot was first irrigated with 250 ml phosphorus deficient Hoaglands nutrient solution and after four hours of irrigation 25 ml formulated MZ3, MZ5 and Zaxinone (100 μM) were sprayed. Next day, each pot was again supplied with 250 ml nutrient solution to make the final concentration of each compound to 5 μM and to move the compound to rice seedlings. Pots with and without Striga seeds were kept as the negative and positive control. Each compound was applied twice in a week up to four weeks. The rice plants were grown under normal growth condition (30° C., 70% RH) for eight weeks. The number of emerged Striga plants in each pot were counted.

Data set [5] concerns Gigaspora margarita spores. Briefly: Gigaspora margarita spores germination. The conditions noted are these: 5 μM and 50 nM, 3 and 7 days. As for the experimental part: Spores were sterilized in a solution of Streptomycine sulphate (0.03% W/V) and Chloramine T (3% W/V) and germinated in 200 μl of MZ3 and MZ5 at 5 μM or 50 nM, GR24 10 nM or a solution of Water/Acetone (12.5 μl acetone in 25 ml water). For each treatments 96 sterilized spores were placed individually in the wells of a multi-well plate and treated with freshly prepared solutions at the beginning of the experiment and after 3 days. Spores were germinated in the dark at 30° C. and the germination rate was evaluated after 3 days and 7 days.

Data set [6] concerns tomato plant (c.v. Money maker). Briefly: Foliar application on tomato plants. Conditions: 5 μM foliar application. As for the experimental part:
Tomato seeds (c.v. Money maker) were sterilized and pre-germinated on moistened filter paper at 22° C. for 4-5 days, transferred to light for 3-4 days or direct sowed of seeds from fresh tomatoes in soils at 25° C. Most uniform seedlings (10 days old) were selected and transferred to pots. After one week of the transfer, 5 μM compounds were used for foliar application. Each compound was applied three times in a week up to four weeks: 20 mL per pot (spray as runoff) in first 3 weeks, and 40 mL per pot in last 4th week. The plants were grown under normal growth condition (27° C., 70% RH).

Data set [7] concerns zas mutant and Nipponbare wild-type rice seedlings. Briefly: Hydroponic rice growth, zas mutant rescue and tillering. The conditions noted are these: hydroponic system, 2.5 μM. The procedure: For rescuing zas mutant phenotypes and investigating the effect of the compounds MZ3 and MZ5 on different genotypes, one week-old seedlings were grown hydroponically in half-strength modified Hoagland nutrient solution containing K2HPO4.2H2O (+Pi), 2.5 μM and 5 μM zaxinone or compounds (MZ2-MZ5) (dissolved in 0.1% acetone) or the corresponding volume of the solvent (control) for 21 days (i.e. 3 weeks). The solution was changed every other day, adding the chemical at each renewal.

Entries after “also recorded” stand apart in the source; their conditions may differ.

Regarding `COc1ccc(Oc2cccc(/C=C/C(C)=O)c2)cc1` [MZ3, (E)-4-(3-(4-methoxyphenoxy)phenyl)but-3-en-2-one], the “root surface area and root numbers of WT plants compared with zaxinone treatment” value in data set [1] is “increased more”. Besides, in data set [2] (wild-type rice roots, Pi starvation, 6 h (FIGS. 12A-12D)), the “CCD7 and CO transcript level compared with Zaxinone” value was “significantly lower”. Also, the “transcript levels of SL biosynthesis enzymes D27, CCD7, CCD8 and CO” value in data set [2] (wild-type rice seedlings, Pi-starvation, 6 h) is “strongest inhibition; also recorded: pronounced decrease”. Besides, the “presence in shoots of rice plants fed through roots” value in data set [3] is given as “detected”. Also, the “reduction of the number of emerging Striga plants compared to the untreated control” value in data set [4] is 71%. Besides, the spore germination rate entry in data set [5] is on record as “no effect”. For the same compound, the “plant height, branch, flowers and fruit numbers compared to zaxinone” value in data set [6] is “strongly increased”. In data set [7], the “root length of wild-type plants relative to zaxinone” value is on record as “more active than zaxinone”.

(Values after US20220400669A1, “COMPOUNDS AND METHODS FOR PROMOTING PLANT GROWTH” (King Abdullah University of Science and Technology, priority 2019, published 2022).)
